According to BindingDB's records for doi:10.1016/s0960-894x(03)00356-1 (Abbott Laboratories, 2003):

Target: Histamine H3 receptor (Rattus norvegicus) (UniProt Q9QYN8)
Test: Compound was tested for its binding affinity towards rat cortical Histamine H3L receptor

Histamine H3 receptor (Rattus norvegicus), sequence (Q9QYN8 whole entry, looked up): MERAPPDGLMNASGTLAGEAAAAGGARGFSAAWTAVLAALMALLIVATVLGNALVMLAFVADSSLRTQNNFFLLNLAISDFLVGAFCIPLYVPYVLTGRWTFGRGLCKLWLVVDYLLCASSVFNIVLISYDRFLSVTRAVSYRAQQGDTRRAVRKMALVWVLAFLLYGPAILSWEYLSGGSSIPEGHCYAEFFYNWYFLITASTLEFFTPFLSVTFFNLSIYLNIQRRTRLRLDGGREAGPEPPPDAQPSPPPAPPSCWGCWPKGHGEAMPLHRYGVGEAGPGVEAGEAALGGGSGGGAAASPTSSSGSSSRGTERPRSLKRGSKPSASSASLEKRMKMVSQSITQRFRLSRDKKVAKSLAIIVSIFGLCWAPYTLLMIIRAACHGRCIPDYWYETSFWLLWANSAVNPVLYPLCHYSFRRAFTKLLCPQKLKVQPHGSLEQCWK

Ki: 158 nM
Structure (SMILES): CN(C)CCCNc1c2c(nc3c1CCCC3)CCCCC2
